Assay results published in publication PMC8007111, “Novel Potent Muscarinic Receptor Antagonists: Investigation on the Nature of Lipophilic Substituents in the 5- and/or 6-Positions of the 1,4-Dioxane Nucleus” (Journal of Medicinal Chemistry, 2020).

Legend:
Settings in all cases: [3H]NMS, CHO-K1 cell membranes; mean ± S.E.M.
hM1 mAChR = molecular target: T1, hM1 mAChR (Homo sapiens, UniProt P11229); test: [3H]NMS inhibition radioligand binding, hM1 in CHO-K1 cell membranes
T1 construct: expressed in transfected cells; host or cells: CHO-K1 (membrane preparation)
T1 sequence (P11229 1-460): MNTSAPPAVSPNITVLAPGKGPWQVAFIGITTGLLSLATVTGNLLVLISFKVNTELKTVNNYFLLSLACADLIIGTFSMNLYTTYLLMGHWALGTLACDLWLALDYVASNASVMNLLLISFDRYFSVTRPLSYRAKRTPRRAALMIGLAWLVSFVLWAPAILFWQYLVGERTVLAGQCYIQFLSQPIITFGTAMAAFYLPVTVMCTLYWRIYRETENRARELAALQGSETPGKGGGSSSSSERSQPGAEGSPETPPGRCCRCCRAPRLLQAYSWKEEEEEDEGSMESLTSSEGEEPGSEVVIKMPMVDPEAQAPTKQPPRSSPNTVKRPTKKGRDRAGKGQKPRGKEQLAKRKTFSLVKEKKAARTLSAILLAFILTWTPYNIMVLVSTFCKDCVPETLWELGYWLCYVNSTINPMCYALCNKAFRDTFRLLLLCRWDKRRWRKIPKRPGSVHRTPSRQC
Method: (§1) CHO-K1 cells stably transfected with the human muscarinic receptor subtypes (hM1–5) were grown in Dulbecco’s modified Eagle’s medium (DMEM) with nutrient mixture F12 (DMEM/F12, 50/50), containing 10% fetal bovine serum, penicillin (100 U/mL), streptomycin (100 U/mL), L-glutamine (4 mM), and geneticin (G-418, 50 μg/mL) at 37 °C in a 5% CO2 humidified incubator. […] Serum (0.7 mL) was added to inactivate the trypsin, and the cells were spun down by centrifuging at 300g for 5 min. The cells were then resuspended in ice-cold 25 mM sodium phosphate buffer containing 5 mM MgCl2, pH 7.4 (binding buffer) and homogenized using a cell disrupter (Ultra-Turrax, setting 3, 30 s). The homogenate was sedimented by centrifugation (17,000g, 15 min). The supernatant was discarded, and the resulting membrane pellets were resuspended with Ultra-Turrax in the same buffer to give a final protein concentration of 1–2 mg/mL. The protein content was determined by the method of Bradford (1976) with bovine serum albumin (Sigma) as a standard and stored at −80 °C.
(§2) Inhibition radioligand binding assays were conducted as previously described[48],[49] with 0.2 nM [^3H]NMS in binding buffer in a final volume of 250 μL. Nonspecific binding was defined in the presence of 10 μM atropine. Briefly, membrane fractions (about 25–70 μg/mL of protein) were incubated with radioligand and unlabeled test compounds for 2 h at r.t. Bound and free radioactivity were separated by filtering the assay mixture through UniFilter GF/B plates using a FilterMate Cell Harvester (PerkinElmer Life and Analytical Science). The filter bound radioactivity was counted by a TopCount NXT Microplate Scintillation Counter (PerkinElmer Life and Analytical Science). Data (cpm) were normalized to percentage-specific binding and analyzed using a four-parameter logistic equation in GraphPad Prism 5.02; IC50 values were determined, and Ki values were calculated.[59]

hM2 mAChR = molecular target: T2, hM2 mAChR (Homo sapiens, UniProt P08172); test: [3H]NMS inhibition radioligand binding, hM2 in CHO-K1 cell membranes
T2 construct: expressed in transfected cells; host or cells: CHO-K1 (membrane preparation)
T2 sequence (P08172 1-466): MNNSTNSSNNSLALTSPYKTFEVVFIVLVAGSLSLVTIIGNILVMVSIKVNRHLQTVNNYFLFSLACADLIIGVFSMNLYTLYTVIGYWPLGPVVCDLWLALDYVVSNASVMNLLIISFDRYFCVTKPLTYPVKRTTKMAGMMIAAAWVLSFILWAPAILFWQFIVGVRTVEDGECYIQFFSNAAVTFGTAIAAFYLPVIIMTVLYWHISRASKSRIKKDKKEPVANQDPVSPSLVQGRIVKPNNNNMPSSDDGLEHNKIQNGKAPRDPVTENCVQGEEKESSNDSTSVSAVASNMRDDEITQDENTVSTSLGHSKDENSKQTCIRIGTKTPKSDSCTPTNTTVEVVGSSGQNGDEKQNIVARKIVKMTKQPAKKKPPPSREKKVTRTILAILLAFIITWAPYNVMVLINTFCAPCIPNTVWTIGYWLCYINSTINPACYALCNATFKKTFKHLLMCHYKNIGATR
Method: as §1, §2

hM3 mAChR = molecular target: T3, hM3 mAChR (Homo sapiens, UniProt P20309); test: [3H]NMS inhibition radioligand binding, hM3 in CHO-K1 cell membranes
T3 construct: expressed in transfected cells; host or cells: CHO-K1 (membrane preparation)
T3 sequence (P20309 whole entry): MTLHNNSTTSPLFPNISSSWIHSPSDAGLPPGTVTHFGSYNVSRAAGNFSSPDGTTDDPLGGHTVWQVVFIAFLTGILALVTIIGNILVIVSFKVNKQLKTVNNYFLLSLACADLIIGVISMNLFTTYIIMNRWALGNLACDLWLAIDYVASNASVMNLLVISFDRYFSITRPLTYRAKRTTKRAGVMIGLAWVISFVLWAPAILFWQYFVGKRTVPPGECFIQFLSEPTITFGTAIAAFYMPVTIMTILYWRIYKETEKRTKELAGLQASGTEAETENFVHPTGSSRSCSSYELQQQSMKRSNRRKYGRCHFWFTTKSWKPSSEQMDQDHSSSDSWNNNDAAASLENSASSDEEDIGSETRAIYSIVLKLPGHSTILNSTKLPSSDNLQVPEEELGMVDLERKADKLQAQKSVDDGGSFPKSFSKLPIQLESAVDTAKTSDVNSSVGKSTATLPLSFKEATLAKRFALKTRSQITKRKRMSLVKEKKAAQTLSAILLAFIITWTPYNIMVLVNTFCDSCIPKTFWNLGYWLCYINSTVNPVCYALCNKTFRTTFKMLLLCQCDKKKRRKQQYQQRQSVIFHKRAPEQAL
Method: as §1, §2

hM4 mAChR = molecular target: T4, hM4 mAChR (Homo sapiens, UniProt P08173); test: [3H]NMS inhibition radioligand binding, hM4 in CHO-K1 cell membranes
T4 construct: expressed in transfected cells; host or cells: CHO-K1 (membrane preparation)
T4 sequence (P08173 1-479): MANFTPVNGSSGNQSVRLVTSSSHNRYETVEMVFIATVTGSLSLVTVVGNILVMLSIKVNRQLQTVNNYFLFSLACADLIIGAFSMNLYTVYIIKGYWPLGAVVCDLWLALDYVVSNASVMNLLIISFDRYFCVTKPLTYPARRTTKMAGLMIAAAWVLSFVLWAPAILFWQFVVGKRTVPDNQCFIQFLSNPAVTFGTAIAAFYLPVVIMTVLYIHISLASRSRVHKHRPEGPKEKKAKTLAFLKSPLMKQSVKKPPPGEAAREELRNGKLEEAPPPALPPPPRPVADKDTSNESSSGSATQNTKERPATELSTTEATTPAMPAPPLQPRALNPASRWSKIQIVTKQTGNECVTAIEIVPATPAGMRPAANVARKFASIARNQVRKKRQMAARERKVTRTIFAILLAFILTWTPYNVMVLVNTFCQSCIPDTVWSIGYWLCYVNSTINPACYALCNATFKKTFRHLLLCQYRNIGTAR
Method: as §1, §2

hM5 mAChR = molecular target: T5, hM5 mAChR (Homo sapiens, UniProt P08912); test: [3H]NMS inhibition radioligand binding, hM5 in CHO-K1 cell membranes
T5 construct: expressed in transfected cells; host or cells: CHO-K1 (membrane preparation)
T5 sequence (P08912 1-532): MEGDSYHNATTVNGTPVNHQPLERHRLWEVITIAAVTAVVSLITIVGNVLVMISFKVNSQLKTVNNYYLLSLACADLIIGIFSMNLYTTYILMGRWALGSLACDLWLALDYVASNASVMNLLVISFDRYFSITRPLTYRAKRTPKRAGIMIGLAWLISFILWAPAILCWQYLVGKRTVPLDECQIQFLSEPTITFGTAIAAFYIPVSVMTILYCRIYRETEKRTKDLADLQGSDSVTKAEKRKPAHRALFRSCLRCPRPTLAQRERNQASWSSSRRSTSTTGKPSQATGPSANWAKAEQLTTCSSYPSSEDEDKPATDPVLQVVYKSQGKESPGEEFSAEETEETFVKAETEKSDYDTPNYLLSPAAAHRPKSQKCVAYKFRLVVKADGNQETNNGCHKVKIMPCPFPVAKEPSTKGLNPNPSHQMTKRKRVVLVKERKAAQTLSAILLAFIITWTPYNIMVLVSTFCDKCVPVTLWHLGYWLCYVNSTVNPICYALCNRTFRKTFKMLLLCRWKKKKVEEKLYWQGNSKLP
Method: as §1, §2

Row | Structure (SMILES) | pKi hM1 (hM1 mAChR) | pKi hM2 (hM2 mAChR) | pKi hM3 (hM3 mAChR) | pKi hM4 (hM4 mAChR) | pKi hM5 (hM5 mAChR)
1 | C[N+](C)(C)C[C@@H]1CO[C@](c2ccccc2)(C2CCCCC2)CO1.[I-] (relative stereo) [11b, 1-((2R*,5S*)-5-Cyclohexyl-5-phenyl-1,4-dioxan-2-yl)-N,N,N-trimethylmethanaminium Iodide] | 7.81 ± 0.04 | 7.22 ± 0.11 | 7.36 ± 0.10 | 7.23 ± 0.10 | 7.32 ± 0.09
2 | C[N+](C)(C)C[C@@H]1CO[C@H](C(c2ccccc2)c2ccccc2)CO1.[I-] (relative stereo) [12a, 1-((2R*,5R*)-5-Benzhydryl-1,4-dioxan-2-yl)-N,N,N-trimethylmethanaminium Iodide] | 6.28 ± 0.08 | 5.87 ± 0.09 | 5.77 ± 0.03 | 5.60 ± 0.06 | 5.49 ± 0.06
3 | C[N+](C)(C)C[C@@H]1CO[C@@H](C(c2ccccc2)c2ccccc2)CO1.[I-] (relative stereo) [12b, 1-((2R*,5S*)-5-Benzhydryl-1,4-dioxan-2-yl)-N,N,N-trimethylmethanaminium Iodide] | 6.08 ± 0.07 | 6.06 ± 0.08 | 5.62 ± 0.11 | 5.52 ± 0.06 | 5.20 ± 0.01
4 | C[N+](C)(C)C[C@@H]1CO[C@H](c2ccc(-c3ccccc3)cc2)CO1.[I-] (relative stereo) [13a, 1-((2R*,5R*)-5-([1,1′-Biphenyl]-4-yl)-1,4-dioxan-2-yl)-N,N,N-trimethylmethanaminium Iodide] | <5 | <5 | <5 | <5 | <5
5 | C[N+](C)(C)C[C@@H]1CO[C@@H](c2ccc(-c3ccccc3)cc2)CO1.[I-] (relative stereo) [13b, 1-((2R*,5S*)-5-([1,1′-Biphenyl]-4-yl)-1,4-dioxan-2-yl)-N,N,N-trimethylmethanaminium Iodide] | <5 | 5.49 ± 0.02 | <5 | <5 | <5
6 | C[N+](C)(C)C[C@@H]1CO[C@H](c2ccc(Cc3ccccc3)cc2)CO1.[I-] (relative stereo) [14a, 1-((2R*,5R*)-5-(4-Benzylphenyl)-1,4-dioxan-2-yl)-N,N,N-trimethylmethanaminium Iodide] | <5 | 5.65 ± 0.05 | 5.65 ± 0.12 | <5 | 5.53 ± 0.13
7 | C[N+](C)(C)C[C@@H]1CO[C@@H](c2ccc(Cc3ccccc3)cc2)CO1.[I-] (relative stereo) [14b, 1-((2R*,5S*)-5-(4-Benzylphenyl)-1,4-dioxan-2-yl)-N,N,N-trimethylmethanaminium Iodide] | <5 | <5 | <5 | <5 | <5
8 | C[N+](C)(C)C[C@@H]1CO[C@H](c2ccc(Sc3ccccc3)cc2)CO1.[I-] (relative stereo) [15a, 1-((2R*,5R*)-5-(4-(Phenylthio)phenyl)-1,4-dioxan-2-yl)-N,N,N-trimethylmethanaminium Iodide] | 5.43 ± 0.09 | 6.70 ± 0.13 | 6.01 ± 0.11 | 5.70 ± 0.01 | 6.00 ± 0.14
9 | C[N+](C)(C)C[C@@H]1CO[C@@H](c2ccc(Sc3ccccc3)cc2)CO1.[I-] (relative stereo) [15b, 1-((2R*,5S*)-5-(4-(Phenylthio)phenyl)-1,4-dioxan-2-yl)-N,N,N-trimethylmethanaminium Iodide] | 5.57 ± 0.07 | 5.86 ± 0.04 | 5.35 ± 0.06 | 5.14 ± 0.01 | 5.40 ± 0.15
